# Molecular target: T1, RIPK1 (Homo sapiens, UniProt Q13546)
# T1 construct: endogenous in cells
# T1 sequence (Q13546 1-671): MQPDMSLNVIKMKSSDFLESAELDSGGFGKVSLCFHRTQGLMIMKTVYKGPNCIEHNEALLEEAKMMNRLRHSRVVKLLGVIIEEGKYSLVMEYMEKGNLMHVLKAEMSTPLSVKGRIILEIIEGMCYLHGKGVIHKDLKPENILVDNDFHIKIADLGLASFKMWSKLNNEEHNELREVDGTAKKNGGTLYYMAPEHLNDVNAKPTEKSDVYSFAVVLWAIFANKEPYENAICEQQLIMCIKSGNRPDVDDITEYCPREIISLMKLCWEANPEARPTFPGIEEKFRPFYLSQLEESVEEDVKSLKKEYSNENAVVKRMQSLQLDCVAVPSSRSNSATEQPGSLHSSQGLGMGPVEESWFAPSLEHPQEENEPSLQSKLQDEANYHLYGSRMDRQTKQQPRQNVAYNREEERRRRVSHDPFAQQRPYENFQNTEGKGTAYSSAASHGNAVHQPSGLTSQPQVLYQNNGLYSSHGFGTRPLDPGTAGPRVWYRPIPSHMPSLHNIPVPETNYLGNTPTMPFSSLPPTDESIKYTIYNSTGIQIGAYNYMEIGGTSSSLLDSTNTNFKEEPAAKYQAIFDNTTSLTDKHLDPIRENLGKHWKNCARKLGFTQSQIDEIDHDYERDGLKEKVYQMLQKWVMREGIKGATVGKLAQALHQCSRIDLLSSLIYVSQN
# Experiment: RIPK1 degradation Western Blot assay
# Type: cell-based
# Settings: human cells, 24 h incubation at 37° C., read-out: Degradation Activity (DC50, concentration at which 50% of RIPK1 kinase has been degraded)
# Method: Cells were seeded in 6-well cell culture plates overnight prior to treatment and incubated with the indicated doses of compounds for 24 h at 37° C. Then, cell pellets were collected and resuspended with RIPA lysis buffer, which was added with 1% […] inhibitor and phosphatase inhibitor Cocktail. Whole-cell protein lysates were sonicated on ice for 20 seconds and centrifuged at 12 000 rpm for 20 min at 4° C. The supernatants were determined using the BCA method. Proteins were separated by sodium dodecyl sulfate-polyacrylamide gel electrophoresis and transferred to polyvinylidene fluoride membranes. The membranes were incubated with blocking buffer for 1 h. Then, the membranes were incubated at 4° C. overnight with the primary antibodies. After washing, the membranes were incubated for 1 h at room temperature with the secondary antibody and washed again. Changes in protein expression was detected using an enhanced chemiluminescence detection reagent. RIPK1 antibody was purchased from Santa Cruz.
# The activities of exemplary compounds as described herein, measured in terms of the degradation concentration (DC50 representing the concentration at which 50% of the target, in this case RIPK1 kinase, has been degraded), are provided in Table 11. In Table 11, a DC50 value less than 1 μM is indicated as an “A;” a DC50 value from 1 μM to 10 μM is indicated as a “B” and a DC50 value of greater than 10 μM is indicated as a “C.”
row,Compound,DC50
1,Cn1c(=O)n(C2CCC(=O)NC2=O)c2ccc(CCC(=O)N3CCN(c4ccc(C#Cc5ccc(C(=O)NCCCn6cc(-c7ccc8c(c7)CCN8C(=O)Cc7cccc(OC(F)(F)F)c7)c7c(N)ncnc76)cc5)cn4)CC3)cc21 (centres unmarked) [Compound 79],< 1000 nM
2,Cn1c(=O)n(C2CCC(=O)NC2=O)c2ccc(CCC(=O)c3ccc(C#Cc4ccc(C(=O)NCCCn5cc(-c6ccc7c(c6)CCN7C(=O)Cc6cccc(OC(F)(F)F)c6)c6c(N)ncnc65)cc4)cn3)cc21 (centres unmarked) [Compound 81],< 1000 nM
3,"Cc1ncsc1-c1ccc([C@H](C)NC(=O)[C@@H]2C[C@@H](O)CN2C(=O)[C@@H](NC(=O)CCOCCOCCOCCNC(=O)c2ccc(-c3cc(N4CCC(C(=O)N5N=CCC5c5ccccc5)CC4)ncn3)cc2)C(C)(C)C)cc1 (stereo partly drawn) [Compound 23, (2S,4R)-1-((16S)-16-(tert-butyl)-1,14-dioxo-1-(4-(6-(4-(5-phenyl-4,5-dihydro-1H-pyrazole-1-carbonyl)piperidin-1-yl)pyrimidin-4-yl)phenyl)-5,8,11-trioxa-2,15-diazaheptadecane-17-oyl)-4-hydroxy-N—((S)-1-(4-(4-methylthiazol-5-yl)phenyl)ethyl)pyrrolidine-2-carboxamide]",> 10000 nM
4,"Cc1ncsc1-c1ccc([C@H](C)NC(=O)[C@@H]2C[C@@H](O)CN2C(=O)[C@@H](NC(=O)CCCCCCCCC(=O)N2CCC(C(=O)N3N=CCC3c3ccccc3)CC2)C(C)(C)C)cc1 (stereo partly drawn) [Compound 13, (2S,4R)-1-((2S)-3,3-dimethyl-2-(10-oxo-10-(4-(5-phenyl-4,5-dihydro-1H-pyrazole-1-carbonyl)piperidin-1-yl)decanamide)butanoyl)-4-hydroxy-N—((S)-1-(4-(4-methylthiazol-5-yl)phenyl)ethyl)pyrrolidine-2-carboxamide]",> 10000 nM
5,Cn1c(=O)n(C2CCC(=O)NC2=O)c2ccc(CCC(=O)N3CCC(N4CCC(C#Cc5ccc(C(=O)NCCCn6cc(-c7ccc8c(c7)CCN8C(=O)Cc7cccc(OC(F)(F)F)c7)c7c(N)ncnc76)cc5)CC4)CC3)cc21 (centres unmarked) [Compound 78],< 1000 nM
6,Nc1ncnc2c1c(-c1ccc3c(c1)CCN3C(=O)Cc1cccc(OC(F)(F)F)c1)cn2CCCNC(=O)c1ccc(C#CC2CCN(C(=O)CN3CCC(c4ccc(NC5CCC(=O)NC5=O)cc4)CC3)CC2)cc1 (centres unmarked) [Compound 69],1000 to 10000 nM

# Next, values leading:
row,DC50,Compound
1,< 1000 nM,Nc1ncnc2c1c(-c1ccc3c(c1)CCN3C(=O)Cc1cccc(OC(F)(F)F)c1)cn2CCCNC(=O)c1ccc(C#CC2CCN(C3CCN(C(=O)CN4CCC(c5ccc(NC6CCC(=O)NC6=O)cc5)CC4)CC3)CC2)cc1 (centres unmarked) [Compound 66]
2,< 1000 nM,Cc1ncsc1-c1ccc([C@H](C)NC(=O)[C@@H]2C[C@@H](O)CN2C(=O)[C@@H](NC(=O)c2ccc(C#Cc3ccc(C(=O)NCCCn4cc(-c5ccc6c(c5)CCN6C(=O)Cc5cccc(OC(F)(F)F)c5)c5c(N)ncnc54)cc3)cn2)C(C)(C)C)cc1 [Compound 35]
3,< 1000 nM,Cn1c(=O)n(C2CCC(=O)NC2=O)c2ccc(CCC(=O)N3CCC(C#Cc4ccc(C(=O)NCCCn5cc(-c6ccc7c(c6)CCN7C(=O)Cc6cccc(OC(F)(F)F)c6)c6c(N)ncnc65)cc4)CC3)cc21 (centres unmarked) [Compound 80]
4,1000 to 10000 nM,"Cc1ncsc1-c1ccc([C@H](C)NC(=O)[C@@H]2C[C@@H](O)CN2C(=O)[C@@H](NC(=O)CCC(=O)NCCCn2cc(-c3ccc4c(c3)CCN4C(=O)Cc3cccc(OC(F)(F)F)c3)c3c(N)ncnc32)C(C)(C)C)cc1 [Compound 1, N1-(3-(4-amino-5-(1-(2-(3-(trifluoromethoxy)phenyl)acetyl)indolin-5-yl)-7H-pyrrolo[2,3-d]pyrimidin-7-yl)propyl)-N4-((S)-1-((2S,4R)-4-hydroxy-2-(((S)-1-(4-(4 methylthiazol-5-yl)phenyl)ethyl)carbamoyl)pyrrolidin-1-yl)-3,3-dimethyl-1-oxobutan-2-yl)succinimide]"
5,< 1000 nM,Cc1ncsc1-c1ccc([C@H](C)NC(=O)[C@@H]2C[C@@H](O)CN2C(=O)[C@@H](NC(=O)CCc2ccc(C#Cc3ccc(CCC(=O)NCCCn4cc(-c5ccc6c(c5)CCN6C(=O)Cc5cccc(OC(F)(F)F)c5)c5c(N)ncnc54)cc3)cn2)C(C)(C)C)cc1 [Compound 34]
